pIC50: −log10 of the molar value. Like-named read-outs stand apart in the source and are kept apart here.
Experiments:
MYB = assay: HiBiT protein abundance assay, MYB (K562 HiBiT knock-in); type: cell-based, human; conditions: HiBiT knock-in K562 cells, 24 hours, top dose 10 μM
In short: (§1)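 Luminescence readout: Nano-Glo HiBiT lytic detection after 24 h compound exposure of K562 HiBiT knock-in cells, 10000 cells/well. Dosing 10-pt, 3-fold, top 10 μM final. % response vs untreated parental K562 and DMSO controls; 4PL fit, IC50 = concentration giving 50% protein abundance.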

HTT = assay: HiBiT protein abundance assay, HTT (K562 HiBiT knock-in); type: cell-based, human; conditions: HiBiT knock-in K562 cells, 24 hours, top dose 10 μM
In short: as §1

K562 cells = assay: Cell Titer Glo 2.0 cell viability (toxicity) assay, K562; conditions: 500 cells/well, 72 hours
HTT mRNA = assay: RT-qPCR splicing assay, HTT mRNA canonical (CJ) and alternative (AJ) junction; type: cell-based, human; conditions: Homo sapiens; for AC50: HTT alternative junction mRNA, read-out: HTT AJ (increase in AJ mRNA, AC50)
In short: (§2)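 Canonical and alternative-exon junction isoforms were quantified by RT-qPCR in cell lysates, with ΔCt against a housekeeper (GAPDH/GUSB/PPIA), then ΔΔCt vs DMSO, converted to 2^(−ΔΔCt) and percent response. K562 or A673 cells were exposed for 24 h to 11 concentrations (3-fold, top final 10 uM).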

MYB mRNA = assay: RT-qPCR splicing assay, MYB mRNA canonical (CJ) and alternative (AJ) junction; type: cell-based, human; conditions: Homo sapiens; for AC50: MYB alternative junction mRNA, read-out: MYB AJ (increase in AJ mRNA, AC50)
In short: as §2

SMN2 mRNA = assay: RT-qPCR splicing assay, SMN2 mRNA; type: cell-based, human; conditions: Homo sapiens, canonical junction qPCR panel, Table 4; read-out: SMN2 IC50 (decrease in CJ mRNA levels)
In short: as §2

Target C = assay: HiBiT protein abundance assay, Target C (K562 HiBiT knock-in); type: cell-based, human; conditions: HiBiT knock-in K562 cells, 24 hours, top dose 10 μM
In short: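 K562 HiBiT knock-in cells (10000/well) were treated 24 h at 37° C with a 10-point 3-fold dilution series (top 10 μM final, ≤0.25% DMSO). HiBiT luminescence was read after lytic LgBiT detection. Percent response used unmodified K562 and DMSO-treated knock-in controls, and IC50 came from a four-parameter fit at 50% of untreated.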

[1] = HTT canonical junction mRNA, RT-qPCR, read-out: HTT CJ (decrease in CJ mRNA levels, IC50)
[2] = canonical junction qPCR panel, Table 4, read-out: HTT IC50 (decrease in CJ mRNA levels)
[3] = MYB canonical junction mRNA, RT-qPCR, read-out: MYB CJ (decrease in CJ mRNA levels, IC50)
[4] = canonical junction qPCR panel, Table 4, read-out: MYB IC50 (decrease in CJ mRNA levels)

Row | SMILES | pIC50 (MYB) | pIC50 (HTT) | Effect of Exemplary Compounds on Cell Viability, K562 (K562 cells) | AC50 (HTT mRNA; RT-qPCR) [nM] | pIC50 (HTT mRNA; [1]) | pIC50 (HTT mRNA; [2]) | AC50 (MYB mRNA; RT-qPCR) [nM] | pIC50 (MYB mRNA; [3]) | pIC50 (MYB mRNA; [4]) | pIC50 (SMN2 mRNA) | pIC50 (Target C)
1 | Cn1cc2cc(-c3ccc4nc(N5CC(NC(C)(C)C)C5)ccc4n3)c(O)cc2n1 [Compound 165] | 5.00 to 6.00 | 5.00 to 6.00 | B (B represents 100-1000 nM) | 1000 to 10000 | 5.00 to 6.00 | 5.00 to 6.00 | 1000 to 10000 | 5.00 to 6.00 | 5.00 to 6.00 | 5.00 to 6.00 | 5.00 to 6.00
2 | CC(C)(C)NC1CCN(c2ccc3nc(-c4cc5cnccc5cc4O)ccc3n2)C1 (stereo not shown) [Compound 166] | < 5.00 | < 5.00 | B (B represents 100-1000 nM) | > 10000 | < 5.00 | < 5.00 | > 10000 | < 5.00 | < 5.00 | < 5.00 | 5.00 to 6.00
3 | Cn1cnc2cc(-c3ccc4nc(N5CCC(NC(C)(C)C)C5)ccc4n3)c(O)cc2c1=O (stereo not shown) [Compound 167] | < 5.00 | < 5.00 | B (B represents 100-1000 nM) | > 10000 | < 5.00 | < 5.00 | > 10000 | < 5.00 | < 5.00 | < 5.00 | < 5.00
4 | COc1cc2c(=O)n(C)cnc2cc1-c1ccc2nc(N3CCC(NC(C)(C)C)C3)ccc2n1 (stereo not shown) [Compound 168] | < 5.00 | < 5.00 | D (D represents greater than 10 μM in K562 cells) | > 10000 | < 5.00 | < 5.00 | > 10000 | < 5.00 | < 5.00 | < 5.00 | < 5.00
5 | CN1CCC2(CC1)CCN2c1ccc2nc(-c3cc4cn(C)nc4cc3O)ccc2n1 [Compound 169] | 5.00 to 6.00 | 5.00 to 6.00 | B (B represents 100-1000 nM) | > 10000 | < 5.00 | < 5.00 | > 10000 | < 5.00 | < 5.00 | 5.00 to 6.00 | < 5.00
6 | CN[C@H]1CCN(c2ccc3nc(-c4cc5cn(C)nc5cc4O)ccc3n2)C1 [Compound 170] | 6.00 to 7.00 | > 7.00 | B (B represents 100-1000 nM) | 100 to 1000 | > 7.00 | > 7.00 | 100 to 1000 | 6.00 to 7.00 | 6.00 to 7.00 | > 7.00 | 6.00 to 7.00
7 | CN[C@@H]1CCN(c2ccc3nc(-c4cc5cn(C)nc5cc4O)ccc3n2)C1 [Compound 172] | > 7.00 | > 7.00 | B (B represents 100-1000 nM) | 100 to 1000 | > 7.00 | > 7.00 | < 100 | > 7.00 | > 7.00 | > 7.00 | 6.00 to 7.00
8 | CC(C)N[C@@H]1CCN(c2ccc3nc(-c4cc5cn(C)nc5cc4O)ccc3n2)C1 [Compound 173] | > 7.00 | > 7.00 | A (A represents <100 nM) | < 100 | > 7.00 | > 7.00 | < 100 | > 7.00 | > 7.00 | > 7.00 | > 7.00
9 | Cc1cc(=O)c2cc(O)c(-c3ccc4nc(N5CCC(NC(C)(C)C)C5)ccc4n3)cc2o1 (stereo not shown) [Compound 174] | < 5.00 | < 5.00 | A (A represents <100 nM) | > 10000 | < 5.00 | < 5.00 | > 10000 | < 5.00 | < 5.00 | < 5.00 | < 5.00
10 | Cc1nc2cc(O)c(-c3ccc4nc(N5CCC(NC(C)(C)C)C5)ccc4n3)cc2o1 (stereo not shown) [Compound 175] | > 7.00 | > 7.00 | B (B represents 100-1000 nM) | < 100 | > 7.00 | > 7.00 | < 100 | > 7.00 | > 7.00 | > 7.00 | > 7.00
11 | COc1cc2nc(C)sc2cc1-c1ccc2nc(N3CCC(NC(C)(C)C)C3)ccc2n1 (stereo not shown) [Compound 176] | 5.00 to 6.00 | 5.00 to 6.00 | C (C represents 1000-9999 nM) | 1000 to 10000 | 5.00 to 6.00 | 5.00 to 6.00 | 1000 to 10000 | 5.00 to 6.00 | 5.00 to 6.00 | 5.00 to 6.00 | 5.00 to 6.00
12 | COc1cc2nc(C)oc2cc1-c1ccc2nc(N3CCC(NC(C)(C)C)C3)ccc2n1 (stereo not shown) [Compound 177] | 5.00 to 6.00 | 5.00 to 6.00 | C (C represents 1000-9999 nM) | 1000 to 10000 | 5.00 to 6.00 | 5.00 to 6.00 | 1000 to 10000 | 5.00 to 6.00 | 5.00 to 6.00 | 5.00 to 6.00 | 5.00 to 6.00
13 | Cn1cc2cc(-c3ccc4nc(N5CCC6(CCN6)C5)ccc4n3)c(O)cc2n1 (stereo not shown) [Compound 178] | 6.00 to 7.00 | 6.00 to 7.00 | B (B represents 100-1000 nM) | 100 to 1000 | 6.00 to 7.00 | 6.00 to 7.00 | 100 to 1000 | 6.00 to 7.00 | 6.00 to 7.00 | > 7.00 | 6.00 to 7.00
14 | CCN[C@H]1CCN(c2ccc3nc(-c4cc5cn(C)nc5cc4O)ccc3n2)C1 [Compound 179] | 6.00 to 7.00 | > 7.00 | B (B represents 100-1000 nM) | < 100 | > 7.00 | > 7.00 | < 100 | 6.00 to 7.00 | 6.00 to 7.00 | > 7.00 | 6.00 to 7.00

Reference: patent US20250092065A1, “2-(INDAZOL-5-YL)-6-(PIPERIDIN-4-YL)-1,7-NAPHTHYRIDINE DERIVATIVES AND RELATED COMPOUNDS AS MODULATORS FOR SPLICING NUCLEIC ACIDS AND FOR THE TREATMENT OF PROLIFERATIVE DISEASES” (REMIX THERAPEUTICS INC., priority 2022, published 2025)
